Assay results published in PMC4821887, “Identification of chemicals that mimic transcriptional changes associated with autism, brain aging and neurodegeneration” (Nature Communications, 2016).

Each compound was assayed on mouse cortical neuron cultures. Settings: not given.

SMILES | % Dead cells (vehicle subtracted)
Oc1ccc(C(c2ccc(O)cc2)C(Cl)(Cl)Cl)cc1 | 1.986%
O=C(O)CCCOc1ccc(Cl)cc1Cl | -0.3394%
CCCOC(=O)c1ccc(C(=O)OCCC)nc1 | -2.999%
CSC(=O)c1cccc2nnsc12 | -0.1497%
Clc1nc(Cl)nc(Nc2ccccc2Cl)n1 | -1.572%
CCNc1nc(N)nc(Cl)n1 | 1.813%
CC(C)(c1ccc(O)cc1)c1ccc(O)cc1.CC(C)(c1ccc(O)cc1)c1ccc(O)cc1 | 0.9627%
N#Cc1cc(Br)c(O)c(Br)c1 | -1.631%
CC1=C(C(=O)Nc2ccccc2)SCCO1 | 3.189%
O=C(O)c1nc(Cl)ccc1Cl | -1.907%
CC(Oc1ccc(Cl)cc1Cl)C(=O)O (stereo not drawn) | -0.3394%
CCCCOC(=O)[C@@H](C)Oc1ccc(Oc2ccc(C(F)(F)F)cn2)cc1 | 0.5693%
Cc1cnc(C2=NC(C)(C(C)C)C(=O)N2)c(C(=O)O)c1 (stereo not drawn) | -0.5785%
CCCCC(CC)CN1C(=O)C2C3C=CC(C3)C2C1=O (stereo not drawn) | -0.09059%
CN=C=S | 3.139%
COC(=O)C=C(C)OP(=O)(OC)OC | -2.439%
CCCCOC(=O)c1ccccc1C(=O)O | 5.2539%
CNC(=O)/C=C(\C)OP(=O)(OC)OC | -1.862%
O=C(O)C(F)(F)C(F)(F)C(F)(F)C(F)(F)C(F)(F)C(F)(F)C(F)(F)F | -2.482%
COc1nc(NC(C)C)nc(NC(C)C)n1 | -1.14%
CC(C)Nc1nc(Cl)nc(NC(C)C)n1 | 0.5652%
CC1=NNC(=O)N(/N=C/c2cccnc2)C1 | -2.3223%
N#CSCSc1nc2ccccc2s1 | -1.603%

SMILES | % Dead cells (vehicle subtracted)
Cc1c(COC(=O)[C@@H]2[C@H](/C=C(\Cl)C(F)(F)F)C2(C)C)cccc1-c1ccccc1 (racemic) [Bifenthrin] | 0.2358%
Cc1ccccc1CO[C@@H]1C[C@@]2(C(C)C)CC[C@]1(C)O2 (racemic) [Cinmethylin] | -0.5547%
COP(=O)(NC(C)=O)SC (stereo not drawn) [Acephate] | -1.8111%
C/C(=N\C#N)N(C)Cc1ccc(Cl)nc1 [Acetamiprid] | 2.983%
O=C(O)c1cc(Oc2ccc(C(F)(F)F)cc2Cl)ccc1[N+](=O)[O-] [Acifluorfen] | 3.873%
CCc1cccc(CC)c1N(COC)C(=O)CCl [Alachlor] | 3.545%
CNC(=O)O/N=C/C(C)(C)SC [Aldicarb] | -0.4371%
Cc1ccc(/N=C/N(C)/C=N/c2ccc(C)cc2C)c(C)c1 [Amitraz] | 0.3334%
COP(=O)(OC)SCn1c(=O)oc2cc(Cl)cnc21 [Azamethiphos] | -0.5762%
COP(=S)(OC)SCn1nnc2ccccc2c1=O [Azinphos-methyl] | -0.9211%
CNC(=O)Oc1cccc2c1OC(C)(C)O2 [Bendiocarb] | 9.256%
CCCCN(CC)c1c([N+](=O)[O-])cc(C(F)(F)F)cc1[N+](=O)[O-] [Benfluralin [Benefin]] | -1.412%
CC(C)N1C(=O)c2ccccc2NS1(=O)=O [Bentazone] | -0.5905%
CCC(C)n1c(=O)[nH]c(C)c(Br)c1=O (stereo not drawn) [Bromacil] | 5.5524%
O=C1C2CC=CCC2C(=O)N1SC(Cl)(Cl)Cl (stereo not drawn) [Captan] | 2.374%
CCOC(=O)C(Cl)Cc1cc(-n2nc(C)n(C(F)F)c2=O)c(F)cc1Cl (stereo not drawn) [Carfentrazone-ethyl] | 9.785%
CCOP(=S)(OCC)OC(Cl)C(Cl)(Cl)Cl (stereo not drawn) [Chlorethoxyfos] | 0.5415%
COc1cc(Cl)c(OC)cc1Cl [Chloroneb] | -0.9422%
COP(=S)(OC)Oc1nc(Cl)c(Cl)cc1Cl [Chlorpyrifos-methyl] | -0.3201%
Clc1ccccc1-c1nnc(-c2ccccc2Cl)nn1 [Clofentezine] | 0.4977%
CC1(C)CON(Cc2ccccc2Cl)C1=O [Clomazone] | -3.452%
CC(Oc1cccc(Cl)c1)C(=O)O (stereo not drawn) [Cloprop] | -3.007%
NCCO.O=C(O)c1nc(Cl)ccc1Cl [Clopyralid-olamine] | 0.5713%

SMILES | % Dead cells (vehicle subtracted)
Oc1ccc(Cl)cc1Cc1ccccc1 [Clorophene] | 2.359%
CN/C(=N\[N+](=O)[O-])NCc1cnc(Cl)s1 [Clothianidin] | -2.188%
CCOP(=S)(OCC)Oc1ccc2c(C)c(Cl)c(=O)oc2c1 [Coumaphos] | 0.01959%
N#CN [Cyanamide] | 0.2955%
CCNc1nc(Cl)nc(NC(C)(C)C#N)n1 [Cyanazine] | 0.5036%
O=C(O)C1(C(=O)Nc2ccc(Cl)cc2Cl)CC1 [Cyclanilide] | 0.6928%
CC1(C)C(C=C(Cl)Cl)C1C(=O)OC(C#N)c1ccc(F)c(Oc2ccccc2)c1 (stereo not drawn) [Cyfluthrin (Baythroid)] | -3.677%
CCCCOC(=O)[C@@H](C)Oc1ccc(Oc2ccc(C#N)cc2F)cc1 [Cyhalofop-butyl] | 0.4476%
CCNC(=O)NC(=O)/C(C#N)=N/OC [Cymoxanil] | 3.586%
CN(C)NC(=O)CCC(=O)O [Daminozide] | -0.7321%
CCOP(=S)(OCC)Oc1cc(C)nc(C(C)C)n1 [Diazinon] | 0.1738%
CCOP(=O)(OCC)Oc1cc(C)nc(C(C)C)n1 [Diazoxon] | -0.938%
COP(=O)(OC)OC=C(Cl)Cl [Dichlorvos] | 0.4159%
COC(=O)C(C)Oc1ccc(Oc2ccc(Cl)cc2Cl)cc1 (stereo not drawn) [Diclofop-methyl] | -2.902%
Nc1c(Cl)cc([N+](=O)[O-])cc1Cl [Dicloran] | -0.1169%
CCOc1nc(F)cc2nc(S(=O)(=O)Nc3c(Cl)cccc3Cl)nn12 [Diclosulam] | 0.003204%
COP(=O)(OC)O/C(C)=C/C(=O)N(C)C [Dicrotophos] | -0.1238%
CCCCC(CC)COC(=O)c1ccccc1C(=O)OCC(CC)CCCC (stereo not drawn) [Diethylhexyl phthalate (DEHP)] | -0.2848%
CC1COC(Cn2cncn2)(c2ccc(Oc3ccc(Cl)cc3)cc2Cl)O1 (stereo not drawn) [Difenoconazole] | -2.028%
CNC(=O)CSP(=S)(OC)OC [Dimethoate] | -3.6%
COC(=O)c1ccccc1C(=O)OC [Dimethyl phthalate] | 1.872%

Same assay, conditions: 10 µM chemical; mouse cortical neuron cultures

SMILES | % Dead cells (vehicle subtracted)
CCCCC(CC)COC(=O)c1ccccc1C(=O)O (stereo not drawn) | -0.8176%
CCSC(=O)N(CC(C)C)CC(C)C [Butylate] | 1.861%

Same assay, conditions: mouse, 24 h, 0.1 µM

SMILES | % Dead cells (vehicle subtracted)
CC(C1CC1)C(O)(Cn1cncn1)c1ccc(Cl)cc1 (stereo not drawn) [Cyproconazole] | 3.058%

Same assay, conditions: mouse, 24 h, 1 µM

SMILES | % Dead cells (vehicle subtracted)
CC(C1CC1)C(O)(Cn1cncn1)c1ccc(Cl)cc1 (stereo not drawn) [Cyproconazole] | 5.165%

Same assay, conditions: mouse, 24 h, 10 µM

SMILES | % Dead cells (vehicle subtracted)
CC(C)(C)[C@@H](O)[C@@H](Cc1ccc(Cl)cc1)n1cncn1 (racemic) [Paclobutrazol] | -2.562%
CCOCN(C(=O)CCl)c1c(C)cccc1CC [Acetochlor] | 2.3535%
CCNc1nc(NC(C)C)nc(SC)n1 [Ametryn] | 0.09019%
COC(=O)NS(=O)(=O)c1ccc(N)cc1 [Asulam] | 1.255%
CCCCNC(=O)n1c(NC(=O)OC)nc2ccccc21 [Benomyl] | 1.032%
COC(=O)c1ccccc1CS(=O)(=O)NC(=O)Nc1nc(OC)cc(OC)n1 [Bensulfuron-methyl] | -2.606%
COc1ccc(-c2ccccc2)cc1NNC(=O)OC(C)C [Bifenazate] | 0.1333%
O=C(Nc1ccccc1-c1ccc(Cl)cc1)c1cccnc1Cl [Boscalid] | -4.045%
CC(C)N1C(=O)N(c2ccccc2)CS/C1=N\C(C)(C)C [Buprofezin] | -1.5902%
CCCCOCN(C(=O)CCl)c1c(CC)cccc1CC [Butachlor] | 0.2625%
C=CCOC(=O)C(C)(C)OC(=O)c1cc(-n2c(=O)cc(C(F)(F)F)n(C)c2=O)ccc1Cl [Butafenacil] | -4.681%
CCC(C)Nc1c([N+](=O)[O-])cc(C(C)(C)C)cc1[N+](=O)[O-] (stereo not drawn) [Butralin] | 4.6194%
CC(C)OC(=O)Nc1cccc(Cl)c1 [Chlorpropham] | -1.179%
C#CCOC(=O)[C@@H](C)Oc1ccc(Oc2ncc(Cl)cc2F)cc1 [Clodinafop-propargyl] | -2.625%
Cc1ccc(-c2c(Cl)nc(C#N)n2S(=O)(=O)N(C)C)cc1 [Cyazofamid] | -1.678%
CCSC(=O)N(CC)C1CCCCC1 [Cycloate] | 2.452%
CC1(C)C(C=C(Cl)Cl)C1C(=O)OC(C#N)c1cccc(Oc2ccccc2)c1 (stereo not drawn) [Cypermethrin] | -3.377%
CC(C1CC1)C(O)(Cn1cncn1)c1ccc(Cl)cc1 (stereo not drawn) [Cyproconazole] | 6.321%
Cc1cc(C2CC2)nc(Nc2ccccc2)n1 [Cyprodinil] | -6.385%
Nc1nc(N)nc(NC2CC2)n1 [Cyromazine] | -4.3436%
CCCCOC(=O)c1ccccc1C(=O)OCCCC [Dibutyl phthalate] | -2.722%
N#Cc1c(Cl)cccc1Cl [Dichlobenil] | 8.856%
OC(c1ccc(Cl)cc1)(c1ccc(Cl)cc1)C(Cl)(Cl)Cl [Dicofol] | 1.054%
COCC(C)N(C(=O)CCl)c1c(C)csc1C (stereo not drawn) [Dimethenamid] | -0.353%
COc1ccc(C(=CC(=O)N2CCOCC2)c2ccc(Cl)cc2)cc1OC [Dimethomorph] | -1.666%
